This passage reports IC50 results from ChEMBL document CHEMBL2440105, “Synthesis and anti-parasitic activity of a novel quinolinone-chalcone series” (Bioorg Med Chem Lett, 2013).

Test [1] concerns THP-1. The experiment in a line: Cytotoxicity against human THP1 cells after 72 hrs by MTT assay. Type of test: cell-based. As to conditions: THP-1, 72 h. (Formazan colour is commonly taken as a measure of viable cells.)
In test [2] the test system is Leishmania infantum. The experiment in a line: Antileishmanial activity against Leishmania infantum MOM/MA671TMAP263 axenic amastigotes infected in THP1 cells after 72 hrs by luciferase reporter gene assay. In kind it is functional, organism-based. As to conditions: MOM/MA671TMAP263, THP-1, 72 h.
The test system of test [3] is Trypanosoma brucei brucei. The experiment in a line: Trypanocidal activity against bloodstream forms of Trypanosoma brucei brucei Lister 427 clone 221a after 72 hrs by AlamarBlue assay. In kind it is functional, organism-based.
The test system of test [4] is THP-1. The experiment in a line: Cytotoxicity against human THP1 cells by AlamarBlue assay. (Alamar Blue is a resazurin reagent that responds to reducing activity.)

For orientation: IC50 means the concentration needed to halve the response being measured. Read a high IC50 as weaker potency. Turning to `COc1ccc(/C=C/C(=O)c2c(O)c3ccccc3n(Cc3ccccc3)c2=O)cc1OC`, the values for the 50% inhibitory concentration (IC50) in test [1], in test [2] and in test [3] were 28.7 µM, more than 25 µM and 5.68 µM, respectively.

As to `COc1ccc(C2CC(c3c(O)c4ccccc4[nH]c3=O)=NN2c2ccccc2)cc1OC` (stereo not drawn), the half-inhibitory concentration (IC50) in test [1] was more than 50 µM; in test [2], 13.5 µM; in test [3] it was 1.46 µM.

In the case of `CC(=O)N1N=C(c2c(O)c3ccccc3[nH]c2=O)CC1c1ccccc1C` (stereo not drawn), the IC50 in test [1] amounted to 4.15 µM; in test [2], 0.71 µM; in test [3], 1.43 µM.

In the case of `Cc1ccc(/C=C/C(=O)c2c(O)c3ccccc3[nH]c2=O)cc1`, the IC50 in test [1] was more than 50 µM; in test [2], 2.1 µM; in test [3], more than 10 µM.

Turning to `Cc1ccccc1/C=C/C(=O)c1c(O)c2ccccc2[nH]c1=O`, the IC50 is more than 50 µM in test [1], more than 50 µM in test [2] and 2.6 µM in test [3].

Take `COc1cc(/C=C/C(=O)c2c(O)c3ccccc3[nH]c2=O)ccc1O`: the IC50 in test [1] is 23.3 µM; in test [2], 11.5 µM; in test [3] it was 4.9 µM.

Consider `COc1cccc(/C=C/C(=O)c2c(O)c3ccccc3[nH]c2=O)c1`, for which the values for the IC50 in test [1], in test [2] and in test [3] were 38.5 µM, 28.4 µM and 6.5 µM, respectively.

With `COc1ccc(/C=C/C(=O)c2c(O)c3ccccc3[nH]c2=O)cc1`, the concentration for half-maximal inhibition (IC50) is more than 50 µM in test [1], 12.7 µM in test [2] and more than 10 µM in test [3].

Consider `COc1ccc(/C=C/C(=O)c2c(O)c3ccccc3[nH]c2=O)cc1OC`, for which the IC50 is more than 50 µM in test [1], 7.5 µM in test [2] and 4.9 µM in test [3].

For the compound `CC(C)(C)c1cc(/C=C/C(=O)c2c(O)c3ccccc3[nH]c2=O)cc(C(C)(C)C)c1O`, the IC50 in test [1] stood at 26.2 µM; in test [2] it was 1.3 µM; in test [3], 3.3 µM.

Take `O=C(/C=C/c1ccc(C(F)(F)F)cc1)c1c(O)c2ccccc2[nH]c1=O`: the figures for the IC50 in test [1], in test [2] and in test [3] were more than 50 µM, 3.1 µM and more than 10 µM, respectively.

With `O=C(/C=C/c1ccc([N+](=O)[O-])cc1)c1c(O)c2ccccc2[nH]c1=O`, the figures for the half-maximal inhibitory concentration (IC50) in test [1], in test [2] and in test [3] were more than 50 µM, 26.9 µM and more than 10 µM, respectively.

Regarding `O=C(O)c1ccc(/C=C/C(=O)c2c(O)c3ccccc3[nH]c2=O)cc1`, the concentration for half-maximal inhibition (IC50) is more than 50 µM in test [1], 18.4 µM in test [2] and more than 10 µM in test [3].

Consider `O=C(/C=C/C=C/c1ccccc1)c1c(O)c2ccccc2[nH]c1=O`, for which the IC50 in test [1] is more than 50 µM; in test [2] it was more than 50 µM; in test [3], more than 10 µM.

Turning to `CC(/C=C/C(=O)c1c(O)c2ccccc2[nH]c1=O)=C\c1ccccc1`, the results for the IC50 in test [1], in test [2] and in test [3] were more than 50 µM, 20 µM and more than 10 µM, respectively.

`CCn1c(=O)c(C(=O)/C=C/c2ccccc2C)c(O)c2ccccc21`: the values for the IC50 in test [1], in test [2] and in test [3] were more than 50 µM, 24.8 µM and more than 10 µM, respectively.

As for `CCn1c(=O)c(C(=O)/C=C/c2ccc(OC)c(OC)c2)c(O)c2ccccc21`, the IC50 in test [1] was more than 50 µM; in test [2], more than 50 µM; in test [3], more than 10 µM.

For `Cc1ccccc1/C=C/C(=O)c1c(O)c2ccccc2n(Cc2ccccc2)c1=O`, the IC50 is 45.7 µM in test [1], more than 25 µM in test [2] and 6.17 µM in test [3].

In the case of `C[C@@H]1[C@H](O)[C@@H](C)/C=C/C=C/C=C/C=C/C=C/C=C/C=C/[C@H](O[C@@H]2O[C@H](C)[C@@H](O)[C@H](N)[C@@H]2O)C[C@@H]2O[C@](O)(C[C@@H](O)C[C@@H](O)[C@H](O)CC[C@@H](O)C[C@@H](O)CC(=O)O[C@H]1C)C[C@H](O)[C@H]2C(=O)O` [AMPHOTERICIN B], the IC50 in test [1] worked out at 23.8 µM; in test [2], 1.2 µM.

Regarding `CC1CS(=O)(=O)CCN1/N=C/c1ccc([N+](=O)[O-])o1` (stereo not drawn) [NIFURTIMOX], the figures for the IC50 in test [4] and in test [3] were more than 100 µM and 2.9 µM, respectively.
